Our source for the MIC values is US11865108B2, “Nitrogen containing bicyclic compounds” (Wockhardt Limited, priority 2019, dated 2024).

One experiment relates to K. pneumoniae H 525. Briefly: Agar dilution MIC, K. pneumoniae H 525. Format: cell-based. The following applies: Klebsiella pneumoniae, H525. On the procedure: (§1) The biological activity of representative compounds according to the invention against various bacterial strains was investigated. In a typical study, overnight grown bacterial cultures were diluted appropriately and inoculated on the agar media containing doubling dilutions of the test compounds. Observations for growth or no growth was performed after 16-20 hours of incubation at 35±2° C. in the ambient air. The overall procedure was performed as per Clinical and Laboratory Standards Institute (CLSI) recommendations, (Clinical and Laboratory Standards Institute (CLSI), Performance Standards for Antimicrobial Susceptibility Testing, 20th Informational Supplement, M07-A9, Volume 32, No. 2, 2012). Molten Mueller Hinton Agar (MHA) (BD, USA) containing serial dilutions of each antibacterial agent were poured on to the plates and allowed to solidify. Appropriate suspensions from the freshly grown cultures were prepared in normal saline so that about 10^4 CFU/spot of the organism was delivered on to the drug containing agar plates using automated multipoint inoculator (Mast, UK). The plates were incubated in Biochemical oxygen demand (BOD) incubator at 37° C. for 18 hours and then examined for growth. […] The Table 2 depicts the antibacterial activity profile of compounds according to present invention against various multidrug resistant bacterial strains.

The test system of the next experiment is E. Coli M 49. Briefly: Agar dilution MIC, E. Coli M 49. In kind it is cell-based. The following applies: Escherichia coli. On the procedure:
as §1

The next experiment relates to K. pneumoniae H 523. Briefly: Agar dilution MIC, K. pneumoniae H 523. Format: cell-based. The following applies: Klebsiella pneumoniae, H523. The method, then:
as §1
For orientation: In agar dilution, organisms are placed on agar that contains the substance at set levels.

Another experiment deals with E. Coli S 18. Nature of the experiment: Agar dilution MIC, E. Coli S 18. Format: cell-based. The settings on record: Escherichia coli. On the procedure:
as §1

The test system of the next experiment is E. Coli 13351. Nature of the experiment: Agar dilution MIC, E. Coli 13351. Format: cell-based. The following applies: Escherichia coli. On the procedure: as §1
In the next experiment the test system is E. Coli 13353. Nature of the experiment: Agar dilution MIC, E. Coli 13353. In kind it is cell-based. The settings on record: Escherichia coli. The method, then:
as §1

The next experiment has as its system K. pneumoniae H 522. Briefly: Agar dilution MIC, K. pneumoniae H 522. Format: cell-based. The following applies: Klebsiella pneumoniae, H522. The method, then: as §1
The subject of the next experiment is E. Coli M 36. Nature of the experiment: Agar dilution MIC, E. Coli M 36. Format: cell-based. The following applies: Escherichia coli. The method, then:
as §1

In another experiment the test system is KP ATCC 700603. Briefly: Agar dilution MIC, KP ATCC 700603. In kind it is cell-based, K. pneumoniae. The settings on record: Klebsiella pneumoniae, ATCC700603. On the procedure:
as §1

A further experiment relates to E. Coli M 50. Nature of the experiment: Agar dilution MIC, E. Coli M 50. Format: cell-based. The settings on record: Escherichia coli. The method, then: as §1
Another experiment deals with E. Coli 13352. Nature of the experiment: Agar dilution MIC, E. Coli 13352. Format: cell-based. The following applies: Escherichia coli. The method, then: as §1
Another experiment concerns K. pneumoniae H 521. Briefly: Agar dilution MIC, K. pneumoniae H 521. In kind it is cell-based. The following applies: Klebsiella pneumoniae, H521. On the procedure: as §1
The subject of another experiment is E. Coli 7 MP. Nature of the experiment: Agar dilution MIC, E. Coli 7 MP. In kind it is cell-based. The settings on record: Escherichia coli. The method, then: as §1
The subject of a further experiment is E. Coli M 138. Nature of the experiment: Agar dilution MIC, E. Coli M 138. The settings on record: Escherichia coli. In kind it is cell-based. On the procedure:
as §1

Broadly, the MIC is the smallest concentration in the dilution series that meets the test's criterion for growth inhibition. Higher therefore signals weaker potency.

In brackets after ≈: the same amount, converted by molar mass.

On to `O=C(NOC[C@@H]1C[C@@H](CO)CN1)[C@@H]1CC[C@@H]2CN1C(=O)N2OS(=O)(=O)O` [Example 5], for which the minimum inhibitory concentration (MIC) against K. pneumoniae H 525 was 1 µg/mL (≈ 2.54 µM); against E. Coli M 49, 4 µg/mL (≈ 10.1 µM); with K. pneumoniae H 523, 1 µg/mL (≈ 2.54 µM); against E. Coli S 18, 1 µg/mL (≈ 2.54 µM); against E. Coli 13351 it was 1 µg/mL (≈ 2.54 µM); against E. Coli 13353, 1 µg/mL (≈ 2.54 µM). In addition, the MIC was 1 µg/mL (≈ 2.54 µM) with K. pneumoniae H 522; 1 µg/mL (≈ 2.54 µM) against E. Coli M 36; above 32 µg/mL against KP ATCC 700603; 1 µg/mL (≈ 2.54 µM) against E. Coli M 50; 2 µg/mL (≈ 5.07 µM) against E. Coli 13352; 1 µg/mL (≈ 2.54 µM) against K. pneumoniae H 521. For the same compound, the values for the MIC with E. Coli 7 MP and in the experiment on E. Coli M 138 were 2 µg/mL (≈ 5.07 µM) and 1 µg/mL (≈ 2.54 µM), respectively.
On to `O=C(NOC[C@H]1C[C@H](CO)CN1)[C@@H]1CC[C@@H]2CN1C(=O)N2OS(=O)(=O)O` [Example 7], for which the MIC is 1 µg/mL (≈ 2.54 µM) against K. pneumoniae H 525; 4 µg/mL (≈ 10.1 µM) in the experiment with E. Coli M 49; 1 µg/mL (≈ 2.54 µM) with K. pneumoniae H 523; 1 µg/mL (≈ 2.54 µM) against E. Coli S 18; 1 µg/mL (≈ 2.54 µM) in the experiment with E. Coli 13351; 1 µg/mL (≈ 2.54 µM) in the experiment with E. Coli 13353. Also, the minimum inhibitory concentration (MIC) with K. pneumoniae H 522 was 2 µg/mL (≈ 5.07 µM); in the experiment on E. Coli M 36, 1 µg/mL (≈ 2.54 µM); against KP ATCC 700603 it was above 32 µg/mL; with E. Coli M 50, 1 µg/mL (≈ 2.54 µM); against E. Coli 13352, 2 µg/mL (≈ 5.07 µM); against K. pneumoniae H 521, 2 µg/mL (≈ 5.07 µM). For the same compound, the MIC was 2 µg/mL (≈ 5.07 µM) against E. Coli 7 MP and 1 µg/mL (≈ 2.54 µM) against E. Coli M 138.
As to `O=C(NOC[C@H]1C[C@@H](CO)CN1)[C@@H]1CC[C@@H]2CN1C(=O)N2OS(=O)(=O)O` [Example 8], the MIC is 1 µg/mL (≈ 2.54 µM) in the experiment with K. pneumoniae H 525; 4 µg/mL (≈ 10.1 µM) in the experiment on E. Coli M 49; 1 µg/mL (≈ 2.54 µM) against K. pneumoniae H 523; 2 µg/mL (≈ 5.07 µM) with E. Coli S 18; 2 µg/mL (≈ 5.07 µM) in the experiment on E. Coli 13351; 1 µg/mL (≈ 2.54 µM) in the experiment on E. Coli 13353. Also, the minimum inhibitory concentration (MIC) was 8 µg/mL (≈ 20.3 µM) with K. pneumoniae H 522; 1 µg/mL (≈ 2.54 µM) in the experiment with E. Coli M 36; above 32 µg/mL against KP ATCC 700603; 1 µg/mL (≈ 2.54 µM) against E. Coli M 50; 4 µg/mL (≈ 10.1 µM) in the experiment with E. Coli 13352; 4 µg/mL (≈ 10.1 µM) against K. pneumoniae H 521. The results for the MIC in the experiment with E. Coli 7 MP and in the experiment with E. Coli M 138 were 4 µg/mL (≈ 10.1 µM) and 1 µg/mL (≈ 2.54 µM), respectively.
`C[C@H]1CN[C@@H](CONC(=O)[C@@H]2CC[C@@H]3CN2C(=O)N3OS(=O)(=O)O)C1` [Example 4, (2S,5R)—N-{[(2R,4R)-4-Methyl-pyrrolidin-2-yl]methyloxy}-7-oxo-6-(sulfooxy)-1,6-diazabicyclo[3.2.1]octane-2-carboxamide]: the MIC in the experiment on K. pneumoniae H 525 was determined as 2 µg/mL (≈ 5.29 µM); in the experiment with E. Coli M 49 it was 4 µg/mL (≈ 10.6 µM); against K. pneumoniae H 523 it was 2 µg/mL (≈ 5.29 µM); against E. Coli S 18, 1 µg/mL (≈ 2.64 µM); in the experiment with E. Coli 13351, 1 µg/mL (≈ 2.64 µM); against E. Coli 13353, 1 µg/mL (≈ 2.64 µM). The MIC is 2 µg/mL (≈ 5.29 µM) against K. pneumoniae H 522; 0.5 µg/mL (≈ 1.32 µM) in the experiment with E. Coli M 36; above 32 µg/mL in the experiment on KP ATCC 700603; 1 µg/mL (≈ 2.64 µM) against E. Coli M 50; 2 µg/mL (≈ 5.29 µM) against E. Coli 13352; 2 µg/mL (≈ 5.29 µM) in the experiment on K. pneumoniae H 521. The MIC was 2 µg/mL (≈ 5.29 µM) against E. Coli 7 MP and 1 µg/mL (≈ 2.64 µM) in the experiment on E. Coli M 138.
Take `C[C@@H]1CN[C@@H](CONC(=O)[C@@H]2CC[C@@H]3CN2C(=O)N3OS(=O)(=O)O)C1` [Example 3, (2S,5R)—N-{[(2R,4S)-4-Methyl-pyrrolidin-2-yl]methyloxy}-7-oxo-6-(sulfooxy)-1,6-diazabicyclo[3.2.1]octane-2-carboxamide]: the MIC in the experiment with K. pneumoniae H 525 was 0.5 µg/mL (≈ 1.32 µM); in the experiment on E. Coli M 49, 4 µg/mL (≈ 10.6 µM); in the experiment with K. pneumoniae H 523, 0.5 µg/mL (≈ 1.32 µM); against E. Coli S 18, 1 µg/mL (≈ 2.64 µM); against E. Coli 13351 it was 1 µg/mL (≈ 2.64 µM); in the experiment with E. Coli 13353, 0.5 µg/mL (≈ 1.32 µM). In addition, the MIC is 1 µg/mL (≈ 2.64 µM) against K. pneumoniae H 522; 0.5 µg/mL (≈ 1.32 µM) in the experiment with E. Coli M 36; above 32 µg/mL in the experiment with KP ATCC 700603; 0.5 µg/mL (≈ 1.32 µM) in the experiment with E. Coli M 50; 1 µg/mL (≈ 2.64 µM) in the experiment with E. Coli 13352; 1 µg/mL (≈ 2.64 µM) with K. pneumoniae H 521. In addition, the figures for the MIC in the experiment on E. Coli 7 MP and in the experiment with E. Coli M 138 were 2 µg/mL (≈ 5.29 µM) and 0.5 µg/mL (≈ 1.32 µM), respectively.
